Assay results from ChEMBL document CHEMBL4261593, “Synthesis and antibacterial activity of novel 3-O-arylalkylcarbamoyl-3-O-descladinosyl-9-O-(2-chlorobenzyl)oxime clarithromycin derivatives” (2018).
Converted amounts (≈) assume the structure as drawn.

Legend:
Assay type in all cases: functional
[1] = system: Streptococcus pyogenes; assay: Antibacterial activity against erythromycin-susceptible Streptococcus pyogenes 1 after 24 hrs by broth dilution assay; conditions: Streptococcus pyogenes, 1, 24 h
[2] = system: Escherichia coli; assay: Antibacterial activity against penicillin-susceptible Escherichia coli ATCC 25922 after 24 hrs by broth dilution assay; conditions: ATCC 25922, 24 h
[3] = system: Pseudomonas aeruginosa; assay: Antibacterial activity against penicillin-susceptible Pseudomonas aeruginosa ATCC 27853 after 24 hrs by broth dilution assay; conditions: ATCC 27853, 24 h
[4] = system: Bacillus subtilis; assay: Antibacterial activity against penicillin-susceptible Bacillus subtilis ATCC 9372 after 24 hrs by broth dilution assay; conditions: ATCC 9372, 24 h
[5] = system: Staphylococcus aureus; assay: Antibacterial activity against erythromycin-susceptible Staphylococcus aureus ATCC 25923 after 24 hrs by broth dilution assay; conditions: ATCC 25923, 24 h
[6] = system: Staphylococcus aureus; assay: Antibacterial activity against […] Staphylococcus aureus ATCC 29213 after 24 hrs by broth dilution assay; conditions: ATCC 29213, 24 h
[7] = system: Staphylococcus aureus; assay: Antibacterial activity against penicillin-resistant Staphylococcus aureus ATCC 31007 after 24 hrs by broth dilution assay; conditions: ATCC 31007, 24 h
[8] = system: Streptococcus pyogenes; assay: Antibacterial activity against erythromycin-resistant Streptococcus pyogenes 2 after 24 hrs by broth dilution assay; conditions: Streptococcus pyogenes, 2, 24 h
[9] = system: Streptococcus pneumoniae; assay: Antibacterial activity against erythromycin-resistant Streptococcus pneumoniae A22072 expressing mefA gene after 24 hrs by broth dilution assay; conditions: A22072, 24 h
[10] = system: Streptococcus pneumoniae; assay: Antibacterial activity against erythromycin-resistant Streptococcus pneumoniae B1 expressing ermB gene after 24 hrs by broth dilution assay; conditions: B1, 24 h
[11] = system: Streptococcus pneumoniae; assay: Antibacterial activity against erythromycin-resistant Streptococcus pneumoniae AB11 expressing ermB and mefA genes after 24 hrs by broth dilution assay; conditions: AB11, 24 h

Compound	MIC [1]	MIC [2]	MIC [3]	MIC [4]	MIC [5]	MIC [6]	MIC [7]	MIC [8]	MIC [9]	MIC [10]	MIC [11]
C#CCNC(=O)O[C@H]1[C@H](C)[C@@H](O[C@@H]2O[C@H](C)C[C@H](N(C)C)[C@H]2O)[C@](C)(OC)C[C@@H](C)/C(=N/OCc2ccccc2Cl)[C@H](C)[C@@H](O)[C@](C)(O)[C@@H](CC)OC(=O)[C@@H]1C	4 µg/mL (≈ 4.94 µM)	128 µg/mL (≈ 158 µM)	128 µg/mL (≈ 158 µM)	2 µg/mL (≈ 2.47 µM)	–	–	–	–	–	–	–
CC[C@H]1OC(=O)[C@H](C)[C@@H](OC(=O)NC2CCCCC2)[C@H](C)[C@@H](O[C@@H]2O[C@H](C)C[C@H](N(C)C)[C@H]2O)[C@](C)(OC)C[C@@H](C)/C(=N/OCc2ccccc2Cl)[C@H](C)[C@@H](O)[C@]1(C)O	2 µg/mL (≈ 2.34 µM)	128 µg/mL (≈ 150 µM)	128 µg/mL (≈ 150 µM)	4 µg/mL (≈ 4.68 µM)	16 µg/mL (≈ 18.7 µM)	128 µg/mL (≈ 150 µM)	8 µg/mL (≈ 9.36 µM)	16 µg/mL (≈ 18.7 µM)	1 µg/mL (≈ 1.17 µM)	128 µg/mL (≈ 150 µM)	128 µg/mL (≈ 150 µM)
CC[C@H]1OC(=O)[C@H](C)[C@@H](OC(=O)NCCc2ccc(OC)cc2)[C@H](C)[C@@H](O[C@@H]2O[C@H](C)C[C@H](N(C)C)[C@H]2O)[C@](C)(OC)C[C@@H](C)/C(=N/OCc2ccccc2Cl)[C@H](C)[C@@H](O)[C@]1(C)O	2 µg/mL (≈ 2.21 µM)	128 µg/mL (≈ 141 µM)	128 µg/mL (≈ 141 µM)	2 µg/mL (≈ 2.21 µM)	16 µg/mL (≈ 17.6 µM)	128 µg/mL (≈ 141 µM)	4 µg/mL (≈ 4.41 µM)	8 µg/mL (≈ 8.82 µM)	1 µg/mL (≈ 1.1 µM)	128 µg/mL (≈ 141 µM)	128 µg/mL (≈ 141 µM)
CC[C@H]1OC(=O)[C@H](C)[C@@H](OC(=O)NCCc2ccccc2)[C@H](C)[C@@H](O[C@@H]2O[C@H](C)C[C@H](N(C)C)[C@H]2O)[C@](C)(OC)C[C@@H](C)/C(=N/OCc2ccccc2Cl)[C@H](C)[C@@H](O)[C@]1(C)O	8 µg/mL (≈ 9.13 µM)	128 µg/mL (≈ 146 µM)	128 µg/mL (≈ 146 µM)	8 µg/mL (≈ 9.13 µM)	16 µg/mL (≈ 18.3 µM)	128 µg/mL (≈ 146 µM)	8 µg/mL (≈ 9.13 µM)	16 µg/mL (≈ 18.3 µM)	2 µg/mL (≈ 2.28 µM)	128 µg/mL (≈ 146 µM)	128 µg/mL (≈ 146 µM)
CCCCCCNC(=O)O[C@H]1[C@H](C)[C@@H](O[C@@H]2O[C@H](C)C[C@H](N(C)C)[C@H]2O)[C@](C)(OC)C[C@@H](C)/C(=N/OCc2ccccc2Cl)[C@H](C)[C@@H](O)[C@](C)(O)[C@@H](CC)OC(=O)[C@@H]1C	2 µg/mL (≈ 2.33 µM)	128 µg/mL (≈ 149 µM)	128 µg/mL (≈ 149 µM)	2 µg/mL (≈ 2.33 µM)	16 µg/mL (≈ 18.7 µM)	128 µg/mL (≈ 149 µM)	4 µg/mL (≈ 4.67 µM)	8 µg/mL (≈ 9.34 µM)	1 µg/mL (≈ 1.17 µM)	128 µg/mL (≈ 149 µM)	128 µg/mL (≈ 149 µM)
CC[C@H]1OC(=O)[C@H](C)[C@@H](OC(=O)NCc2ccc(F)cc2)[C@H](C)[C@@H](O[C@@H]2O[C@H](C)C[C@H](N(C)C)[C@H]2O)[C@](C)(OC)C[C@@H](C)/C(=N/OCc2ccccc2Cl)[C@H](C)[C@@H](O)[C@]1(C)O	2 µg/mL (≈ 2.27 µM)	128 µg/mL (≈ 145 µM)	128 µg/mL (≈ 145 µM)	2 µg/mL (≈ 2.27 µM)	4 µg/mL (≈ 4.54 µM)	128 µg/mL (≈ 145 µM)	4 µg/mL (≈ 4.54 µM)	8 µg/mL (≈ 9.09 µM)	1 µg/mL (≈ 1.14 µM)	128 µg/mL (≈ 145 µM)	128 µg/mL (≈ 145 µM)
CC[C@H]1OC(=O)[C@H](C)[C@@H](OC(=O)NCc2ccco2)[C@H](C)[C@@H](O[C@@H]2O[C@H](C)C[C@H](N(C)C)[C@H]2O)[C@](C)(OC)C[C@@H](C)/C(=N/OCc2ccccc2Cl)[C@H](C)[C@@H](O)[C@]1(C)O	4 µg/mL (≈ 4.69 µM)	128 µg/mL (≈ 150 µM)	128 µg/mL (≈ 150 µM)	4 µg/mL (≈ 4.69 µM)	16 µg/mL (≈ 18.8 µM)	128 µg/mL (≈ 150 µM)	8 µg/mL (≈ 9.38 µM)	16 µg/mL (≈ 18.8 µM)	1 µg/mL (≈ 1.17 µM)	128 µg/mL (≈ 150 µM)	128 µg/mL (≈ 150 µM)
CC[C@H]1OC(=O)[C@H](C)[C@@H](OC(=O)NCc2ccccc2Cl)[C@H](C)[C@@H](O[C@@H]2O[C@H](C)C[C@H](N(C)C)[C@H]2O)[C@](C)(OC)C[C@@H](C)/C(=N/OCc2ccccc2Cl)[C@H](C)[C@@H](O)[C@]1(C)O	4 µg/mL (≈ 4.46 µM)	128 µg/mL (≈ 143 µM)	128 µg/mL (≈ 143 µM)	2 µg/mL (≈ 2.23 µM)	8 µg/mL (≈ 8.92 µM)	128 µg/mL (≈ 143 µM)	4 µg/mL (≈ 4.46 µM)	16 µg/mL (≈ 17.8 µM)	1 µg/mL (≈ 1.11 µM)	128 µg/mL (≈ 143 µM)	128 µg/mL (≈ 143 µM)
CCNC(=O)O[C@H]1[C@H](C)[C@@H](O[C@@H]2O[C@H](C)C[C@H](N(C)C)[C@H]2O)[C@](C)(OC)C[C@@H](C)/C(=N/OCc2ccccc2Cl)[C@H](C)[C@@H](O)[C@](C)(O)[C@@H](CC)OC(=O)[C@@H]1C	2 µg/mL (≈ 2.5 µM)	128 µg/mL (≈ 160 µM)	128 µg/mL (≈ 160 µM)	8 µg/mL (≈ 9.99 µM)	16 µg/mL (≈ 20 µM)	128 µg/mL (≈ 160 µM)	16 µg/mL (≈ 20 µM)	32 µg/mL (≈ 40 µM)	1 µg/mL (≈ 1.25 µM)	128 µg/mL (≈ 160 µM)	128 µg/mL (≈ 160 µM)
CC[C@H]1OC(=O)[C@H](C)[C@@H](OC(=O)NCc2ccccc2OC)[C@H](C)[C@@H](O[C@@H]2O[C@H](C)C[C@H](N(C)C)[C@H]2O)[C@](C)(OC)C[C@@H](C)/C(=N/OCc2ccccc2Cl)[C@H](C)[C@@H](O)[C@]1(C)O	4 µg/mL (≈ 4.48 µM)	128 µg/mL (≈ 143 µM)	128 µg/mL (≈ 143 µM)	4 µg/mL (≈ 4.48 µM)	16 µg/mL (≈ 17.9 µM)	128 µg/mL (≈ 143 µM)	4 µg/mL (≈ 4.48 µM)	16 µg/mL (≈ 17.9 µM)	1 µg/mL (≈ 1.12 µM)	128 µg/mL (≈ 143 µM)	128 µg/mL (≈ 143 µM)
CC[C@H]1OC(=O)[C@H](C)[C@@H](OC(=O)NCc2ccc(OC)cc2)[C@H](C)[C@@H](O[C@@H]2O[C@H](C)C[C@H](N(C)C)[C@H]2O)[C@](C)(OC)C[C@@H](C)/C(=N/OCc2ccccc2Cl)[C@H](C)[C@@H](O)[C@]1(C)O	4 µg/mL (≈ 4.48 µM)	128 µg/mL (≈ 143 µM)	128 µg/mL (≈ 143 µM)	4 µg/mL (≈ 4.48 µM)	16 µg/mL (≈ 17.9 µM)	128 µg/mL (≈ 143 µM)	8 µg/mL (≈ 8.96 µM)	16 µg/mL (≈ 17.9 µM)	2 µg/mL (≈ 2.24 µM)	128 µg/mL (≈ 143 µM)	128 µg/mL (≈ 143 µM)
CC[C@H]1OC(=O)[C@H](C)[C@@H](OC(=O)NC2CCCC2)[C@H](C)[C@@H](O[C@@H]2O[C@H](C)C[C@H](N(C)C)[C@H]2O)[C@](C)(OC)C[C@@H](C)/C(=N/OCc2ccccc2Cl)[C@H](C)[C@@H](O)[C@]1(C)O	2 µg/mL (≈ 2.38 µM)	128 µg/mL (≈ 152 µM)	128 µg/mL (≈ 152 µM)	4 µg/mL (≈ 4.76 µM)	16 µg/mL (≈ 19 µM)	128 µg/mL (≈ 152 µM)	8 µg/mL (≈ 9.52 µM)	16 µg/mL (≈ 19 µM)	0.5 µg/mL (≈ 0.595 µM)	128 µg/mL (≈ 152 µM)	128 µg/mL (≈ 152 µM)
CC[C@H]1OC(=O)[C@H](C)[C@@H](OC(=O)NCC(C)C)[C@H](C)[C@@H](O[C@@H]2O[C@H](C)C[C@H](N(C)C)[C@H]2O)[C@](C)(OC)C[C@@H](C)/C(=N/OCc2ccccc2Cl)[C@H](C)[C@@H](O)[C@]1(C)O	1 µg/mL (≈ 1.21 µM)	128 µg/mL (≈ 154 µM)	128 µg/mL (≈ 154 µM)	2 µg/mL (≈ 2.41 µM)	8 µg/mL (≈ 9.66 µM)	128 µg/mL (≈ 154 µM)	8 µg/mL (≈ 9.66 µM)	16 µg/mL (≈ 19.3 µM)	1 µg/mL (≈ 1.21 µM)	128 µg/mL (≈ 154 µM)	128 µg/mL (≈ 154 µM)
CC[C@H]1OC(=O)[C@H](C)[C@@H](OC(=O)NCc2ccc(C)cc2)[C@H](C)[C@@H](O[C@@H]2O[C@H](C)C[C@H](N(C)C)[C@H]2O)[C@](C)(OC)C[C@@H](C)/C(=N/OCc2ccccc2Cl)[C@H](C)[C@@H](O)[C@]1(C)O	2 µg/mL (≈ 2.28 µM)	128 µg/mL (≈ 146 µM)	128 µg/mL (≈ 146 µM)	2 µg/mL (≈ 2.28 µM)	8 µg/mL (≈ 9.13 µM)	128 µg/mL (≈ 146 µM)	4 µg/mL (≈ 4.56 µM)	16 µg/mL (≈ 18.3 µM)	1 µg/mL (≈ 1.14 µM)	128 µg/mL (≈ 146 µM)	128 µg/mL (≈ 146 µM)
